Results on 87 molecules are retold here after patent US12642270B2, “Substituted thiophene carboxamides, thiophene carboxylic acids and derivatives thereof” (Bayer Aktiengesellschaft, priority 2019, dated 2026).

The series can be described thus: Log P by HPLC on reversed phase columns (EEC directive 79/831 Annex V.A8). Format: physicochemical. In short, it runs like this: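 Reversed-phase HPLC per EEC 79/831 Annex V.A8, LC-UV with 10→95% acetonitrile linear gradient; eluent [a] 0.1% formic acid (acidic), [b] 0.001 M ammonium acetate (neutral), [c] 0.1% phosphoric acid (acidic). Calibrated with C3–C16 straight-chain alkan-2-ones, linear interpolation of retention times; multiple values joined by "+".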

Where [1] appears, read: LogP method [a], compounds of formula (I), Table 1.1.

As for `CCOC(=O)C(Cc1ccccc1)NC(=O)c1sc(Cl)c(Cl)c1F` (stereo not drawn) [1.0352], the LogP (method marked [a]) is 4.47^[a].
Same read-out and setting: the same measure for `N#CCNC(=O)c1sc(Br)c(Br)c1C(F)F` [1.0353]: 2.54^[a]; for `COC(=O)CNC(=O)c1sc(Br)c(Br)c1C(F)F` [1.0354]: 2.66^[a]; for `CCOC(=O)CNC(=O)c1sc(Br)c(Br)c1C(F)F` [1.0355]: 3.01^[a].
The same measure, in the same setting: then `COC(=O)C1(NC(=O)c2sc(Br)c(Br)c2C(F)F)CC1` [1.0356], with 2.86^[a]; and `CCOC(=O)C(C)NC(=O)c1sc(Br)c(Br)c1C(F)F` (stereo not drawn) [1.0357], with 3.35^[a].
The same measure, in the same setting: the same measure for `COC(=O)C(NC(=O)c1sc(Br)c(Br)c1C(F)F)C1CC1` (stereo not drawn) [1.0358]: 3.37^[a].
Turning to `CCOC(=O)C1(NC(=O)c2sc(Br)c(Br)c2C(F)F)CCC1` [1.0359], where the note is “method marked [a]”, the LogP was 3.67^[a].
Still for that read-out and setting: the same measure for `CCOC(=O)C(NC(=O)c1sc(Br)c(Br)c1C(F)F)C(C)C` (stereo not drawn) [1.0360]: 4.16^[a].
Still for that read-out and setting: the same measure for `COC(=O)C(CC(F)F)NC(=O)c1sc(Br)c(Br)c1C(F)F` (stereo not drawn) [1.0361]: 3.28^[a]; for `CCOC(=O)C(CC(C)C)NC(=O)c1sc(Br)c(Br)c1C(F)F` (stereo not drawn) [1.0362]: 4.45^[a]; for `CCOC(=O)C(CCSC)NC(=O)c1sc(Br)c(Br)c1C(F)F` (stereo not drawn) [1.0363]: 3.89^[a].
On the same count and under the same terms, then `CCOC(=O)C(Cc1ccccc1)NC(=O)c1sc(Br)c(Br)c1C(F)F` (stereo not drawn) [1.0364], with 4.34^[a].
In the case of `N#CCNC(=O)c1sc(Br)c(Br)c1C(F)(F)F` [1.0365], where the note is “method marked [a]”, the LogP is 2.61^[a].
Same read-out and setting: the same measure for `COC(=O)CNC(=O)c1sc(Br)c(Br)c1C(F)(F)F` [1.0366]: 2.71^[a]; for `CCOC(=O)CNC(=O)c1sc(Br)c(Br)c1C(F)(F)F` [1.0367]: 3.05^[a].
As to `COC(=O)C1(NC(=O)c2sc(Br)c(Br)c2C(F)(F)F)CC1` [1.0368], the LogP (method marked [a]) was 2.93^[a].
Take `CCOC(=O)C(C)NC(=O)c1sc(Br)c(Br)c1C(F)(F)F` (stereo not drawn) [1.0369]: the LogP (method marked [a]) was 3.35^[a].
Still for that read-out and setting: the same measure for `CCOC(=O)C1(NC(=O)c2sc(Br)c(Br)c2C(F)(F)F)CC1` [1.0370]: 3.26^[a].
The same measure, in the same setting: the same measure for `COC(=O)C(NC(=O)c1sc(Br)c(Br)c1C(F)(F)F)C1CC1` (stereo not drawn) [1.0371]: 3.37^[a]; for `CCOC(=O)C1(NC(=O)c2sc(Br)c(Br)c2C(F)(F)F)CCC1` [1.0372]: 3.67^[a].
In the case of `CCOC(=O)C(NC(=O)c1sc(Br)c(Br)c1C(F)(F)F)C(C)C` (stereo not drawn) [1.0373], for the setting “method marked [a]”, the LogP was 4.09^[a].
Same read-out and setting: then `COC(=O)C(CC(F)F)NC(=O)c1sc(Br)c(Br)c1C(F)(F)F` (stereo not drawn) [1.0374], with 3.31^[a]; and `CCOC(=O)C(CC(C)C)NC(=O)c1sc(Br)c(Br)c1C(F)(F)F` (stereo not drawn) [1.0375], with 4.38^[a].
Same read-out and setting: then `CCOC(=O)C(CCSC)NC(=O)c1sc(Br)c(Br)c1C(F)(F)F` (stereo not drawn) [1.0376], with 3.87^[a]; and `CCOC(=O)C(Cc1ccccc1)NC(=O)c1sc(Br)c(Br)c1C(F)(F)F` (stereo not drawn) [1.0377], with 4.31^[a]; and `COC(=O)CNC(=O)c1cc(C#N)c(Cl)s1` [1.0378], with 1.75^[a].
For the molecule `CCOC(=O)CNC(=O)c1cc(C#N)c(Cl)s1` [1.0379], the LogP (method marked [a]) is 2.08^[a].
Still for that read-out and setting: then `CCOC(=O)C1(NC(=O)c2cc(C#N)c(Cl)s2)CC1` [1.0380], with 2.28^[a]; and `COC(=O)C(NC(=O)c1cc(C#N)c(Cl)s1)C1CC1` (stereo not drawn) [1.0381], with 2.47^[a].
On the same count and under the same terms, the same measure for `CCOC(=O)C(NC(=O)c1cc(C#N)c(Cl)s1)C(C)C` (stereo not drawn) [1.0382]: 3.20^[a]; for `CCOC(=O)C(CCSC)NC(=O)c1cc(C#N)c(Cl)s1` (stereo not drawn) [1.0383]: 3.01^[a].
The same measure, in the same setting: the same measure for `CCOC(=O)C(Cc1ccccc1)NC(=O)c1cc(C#N)c(Cl)s1` (stereo not drawn) [1.0384]: 3.47^[a]; for `COC(=O)CNC(=O)c1cc(Cl)c(C#N)s1` [1.0385]: 1.77^[a].
In the case of `CCOC(=O)CNC(=O)c1cc(Cl)c(C#N)s1` [1.0386], the LogP (method marked [a]) was 2.10^[a].
On the same count and under the same terms, then `CCOC(=O)C1(NC(=O)c2cc(Cl)c(C#N)s2)CC1` [1.0387], with 2.32^[a].
Still for that read-out and setting: the same measure for `COC(=O)C(NC(=O)c1cc(Cl)c(C#N)s1)C1CC1` (stereo not drawn) [1.0388]: 2.50^[a]; for `CCOC(=O)C(NC(=O)c1cc(Cl)c(C#N)s1)C(C)C` (stereo not drawn) [1.0389]: 3.22^[a].
On the same count and under the same terms, the same measure for `CCOC(=O)C(CCSC)NC(=O)c1cc(Cl)c(C#N)s1` (stereo not drawn) [1.0390]: 3.03^[a].
For the molecule `CCOC(=O)C(Cc1ccccc1)NC(=O)c1cc(Cl)c(C#N)s1` (stereo not drawn) [1.0391], the LogP (method marked [a]) is 3.48^[a].
`COC(=O)CNC(=O)c1sc(Cl)c(C#N)c1Cl` [1.0392]: the LogP (method marked [a]) was 2.16^[a].
On the same count and under the same terms, then `CCOC(=O)CNC(=O)c1sc(Cl)c(C#N)c1Cl` [1.0393], with 2.54^[a]; and `CCOC(=O)C1(NC(=O)c2sc(Cl)c(C#N)c2Cl)CC1` [1.0394], with 2.69^[a].
Still for that read-out and setting: the same measure for `COC(=O)C(NC(=O)c1sc(Cl)c(C#N)c1Cl)C1CC1` (stereo not drawn) [1.0395]: 2.97^[a]; for `CCOC(=O)C(NC(=O)c1sc(Cl)c(C#N)c1Cl)C(C)C` (stereo not drawn) [1.0396]: 3.81^[a].
Regarding `CCOC(=O)C(CCSC)NC(=O)c1sc(Cl)c(C#N)c1Cl` (stereo not drawn) [1.0397], where the note is “method marked [a]”, the LogP was 3.52^[a].
On to `CCOC(=O)C(Cc1ccccc1)NC(=O)c1sc(Cl)c(C#N)c1Cl` (stereo not drawn) [1.0398], for which, for the setting “method marked [a]”, the LogP was 4.05^[a].
Same read-out and setting: then `COC(=O)CNC(=O)c1cc(C#N)c(Br)s1` [1.0399], with 1.79^[a].
The same measure, in the same setting: the same measure for `CCOC(=O)CNC(=O)c1cc(C#N)c(Br)s1` [1.0400]: 2.11^[a].
Take `CCOC(=O)C1(NC(=O)c2cc(C#N)c(Br)s2)CC1` [1.0401]: under setting [1], the LogP is 2.30^[a].
Turning to `COC(=O)C(NC(=O)c1cc(C#N)c(Br)s1)C1CC1` (stereo not drawn) [1.0402], under setting [1], the LogP was 2.50^[a].
Same read-out and setting: the same measure for `CCOC(=O)C(NC(=O)c1cc(C#N)c(Br)s1)C(C)C` (stereo not drawn) [1.0403]: 3.22^[a]; for `CCOC(=O)C(CCSC)NC(=O)c1cc(C#N)c(Br)s1` (stereo not drawn) [1.0404]: 3.03^[a]; for `CCOC(=O)C(Cc1ccccc1)NC(=O)c1cc(C#N)c(Br)s1` (stereo not drawn) [1.0405]: 3.48^[a].
Regarding `COC(=O)CNC(=O)c1sc(Br)c(C#N)c1Br` [1.0406], the LogP under setting [1] is 2.22^[a].
As to `CCOC(=O)CNC(=O)c1sc(Br)c(C#N)c1Br` [1.0407], the LogP under setting [1] is 2.61^[a].
On the same count and under the same terms, the same measure for `CCOC(=O)C1(NC(=O)c2sc(Br)c(C#N)c2Br)CC1` [1.0408]: 2.71^[a].
With `COC(=O)C(NC(=O)c1sc(Br)c(C#N)c1Br)C1CC1` (stereo not drawn) [1.0409], under setting [1], the LogP was 3.02^[a].
Regarding `CCOC(=O)C(NC(=O)c1sc(Br)c(C#N)c1Br)C(C)C` (stereo not drawn) [1.0410], the LogP under setting [1] is 3.84^[a].
On the same count and under the same terms, the same measure for `CCOC(=O)C(CCSC)NC(=O)c1sc(Br)c(C#N)c1Br` (stereo not drawn) [1.0411]: 3.55^[a].
Still for that read-out and setting: then `CCOC(=O)C(Cc1ccccc1)NC(=O)c1sc(Br)c(C#N)c1Br` (stereo not drawn) [1.0412], with 4.08^[a].
As to `COC(=O)C(C1CC1)N(O)C(=O)c1sc(Br)c(Br)c1F` (stereo not drawn) [1.0413], the LogP under setting [1] is 2.77^[a].
Same read-out and setting: the same measure for `CCOC(=O)C1(NC(=O)c2sc(Cl)c(Cl)c2C(F)F)CC1` [1.0414]: 3.17^[a].
Same read-out and setting: then `COC(=O)CNC(=O)c1sc(Cl)c(Cl)c1C(F)F` [1.0415], with 2.61^[a]; and `CCOC(=O)CNC(=O)c1sc(Cl)c(Cl)c1C(F)F` [1.0416], with 2.97^[a]; and `COC(=O)C(NC(=O)c1sc(Cl)c(Cl)c1C(F)F)C1CC1` (stereo not drawn) [1.0417], with 3.33^[a].
Same read-out and setting: the same measure for `CCOC(=O)C(NC(=O)c1sc(Cl)c(Cl)c1C(F)F)C(C)C` (stereo not drawn) [1.0418]: 4.13^[a]; for `CCOC(=O)C(CCSC)NC(=O)c1sc(Cl)c(Cl)c1C(F)F` (stereo not drawn) [1.0419]: 3.86^[a].
As to `CCOC(=O)C(Cc1ccccc1)NC(=O)c1sc(Cl)c(Cl)c1C(F)F` (stereo not drawn) [1.0420], under setting [1], the LogP is 4.33^[a].
The same measure, in the same setting: the same measure for `N#CCNC(=O)c1sc(Br)c(Cl)c1F` [1.0421]: 2.33^[a]; for `COC(=O)CNC(=O)c1sc(Br)c(Cl)c1F` [1.0422]: 2.47^[a].
The same measure, in the same setting: then `CCOC(=O)CNC(=O)c1sc(Br)c(Cl)c1F` [1.0423], with 2.92^[a]; and `COC(=O)C1(NC(=O)c2sc(Br)c(Cl)c2F)CC1` [1.0424], with 2.72^[a].
The same measure, in the same setting: the same measure for `CCOC(=O)C(C)NC(=O)c1sc(Br)c(Cl)c1F` (stereo not drawn) [1.0425]: 3.38^[a]; for `CCOC(=O)C1(NC(=O)c2sc(Br)c(Cl)c2F)CC1` [1.0426]: 3.09^[a]; for `COC(=O)C(NC(=O)c1sc(Br)c(Cl)c1F)C1CC1` (stereo not drawn) [1.0427]: 3.38^[a].
Take `CCOC(=O)C1(NC(=O)c2sc(Br)c(Cl)c2F)CCC1` [1.0428]: under setting [1], the LogP is 3.73^[a].
The same measure, in the same setting: the same measure for `CCOC(=O)C(NC(=O)c1sc(Br)c(Cl)c1F)C(C)C` (stereo not drawn) [1.0429]: 4.38^[a]; for `COC(=O)C(CC(F)F)NC(=O)c1sc(Br)c(Cl)c1F` (stereo not drawn) [1.0430]: 3.21^[a]; for `CCOC(=O)C(CC(C)C)NC(=O)c1sc(Br)c(Cl)c1F` (stereo not drawn) [1.0431]: 4.64^[a].
Still for that read-out and setting: the same measure for `CCOC(=O)C(CCSC)NC(=O)c1sc(Br)c(Cl)c1F` (stereo not drawn) [1.0432]: 3.96^[a].
Same read-out and setting: then `CCOC(=O)C(Cc1ccccc1)NC(=O)c1sc(Br)c(Cl)c1F` (stereo not drawn) [1.0433], with 4.48^[a].
On to `COC(=O)C(CCSC)NC(=O)c1sc(Br)c(Br)c1F` (stereo not drawn) [1.0434], for which the LogP under setting [1] is 3.57^[a].
On the same count and under the same terms, the same measure for `CCOC(=O)C(CC(C)C)NC(=O)c1cc(F)c(Br)s1` (stereo not drawn) [1.0435]: 3.80^[a]; for `CCOC(=O)C(CC(C)C)NC(=O)c1cc(Br)c(Cl)s1` (stereo not drawn) [1.0436]: 4.23^[a].
Same read-out and setting: the same measure for `CCOC(=O)C(NC(=O)c1cc(Br)c(Cl)s1)C(C)C` (stereo not drawn) [1.0437]: 3.87^[a].
Still for that read-out and setting: then `COC(=O)C(CC(F)F)NC(=O)c1cc(Br)c(Cl)s1` (stereo not drawn) [1.0438], with 3.07^[a].
